Experimental findings from US20230085945A1, “ORTHOGONAL SAFETY SWITCHES TO ELIMINATE GENETICALLY ENGINEERED CELLS” (The Board of Trustees of the Leland Stanford Junior …, priority 2020, published 2023) are described below.

For test [1], the system named is undifferentiated NANOG^iCasp9-YFP hPSCs. The test is described as follows: Clonal assay for surviving hPSC colonies after AP20187 treatment. Format: cell-based, human. Conditions: 1 nM AP20, 24-hour treatment; across 7 independent experiments. As to the method:
FIG. 3: Implementation of the NANOG^iCasp9-YFP safety switch. A) Schema depicting how drug AP20187 induces dimerization of Caspase9 in undifferentiated NANOG^iCasp9-YFP hESCs, subsequently triggering cell death (top left). NANOG^iCasp9-YFP hESCs were treated for 24 hours with increasing concentrations of AP20187. AP20187 was withdrawn, and cultures were further grown in mTeSR1 to allow any surviving hESCs to grow; any surviving colonies were counted 1 week later (top right). Alkaline phosphatase staining of whole wells of a 12-well plate after 24-hour treatment with AP20187 (bottom). […] Bioluminescent imaging of mice occurred weekly for 5 weeks with no transplant control (NTC) animals included for relative luminescence normalization. Total flux (photons/sec) was measured for each animal and averaged. […] The percentage of surviving cells was calculated relative to untreated controls. […]
Clonal assay for surviving hPSC colonies—hPSCs were dissociated into single cells with Accutase (Thermo Fisher) and 1×10^6 cells were plated per well of a 6-well plate that was pre-coated with Matrigel. […] Subsequently, AP20187 was withdrawn altogether and hPSCs were cultured with mTeSR1 for 1 week, to allow any surviving hPSCs to regrow and to form clonal colonies, which were then scored (i.e., 1 surviving colony after AP20187 treatment of 1×10^6 hPSCs indicated survival of 1 out of 10^6 cells). […]

The test system of test [2] is ACTB^OiCasp9-mPlum;NANOG^iCasp9-YFP hPSCs and differentiated liver, bone and neural progenitors. The test is described as follows: Killing of ACTB^OiCasp9-mPlum;NANOG^iCasp9-YFP hPSCs and differentiated derivatives by AP21 or AP20 (alamar blue). In kind it is cell-based, human. To be noted: dual-transgenic line; 1 nM, 24 hours. On the procedure:
FIG. 6: Rationale, design and implementation of the ACTB^OiCasP9-mPlum safety switch. A) Intended application of the dual ACTB^OiCasp9-mPlum;NANOG^iCasp9-YFP safeguard. B) Cas9 RNP/AAV6-based knock-in strategy for ACTB^iCasp9-mPlum targeting, which was performed in the NANOG^iCasp9-YFP hESC line. C) 5×10^5 ACTB^OiCasp9-mPlum; NANOG^iCasp9-YFP hESCs were treated with control media or 1-1000 nM AP21967 for 24 hours. Cell viability was analyzed using alamar blue. D) ACTB^OiCasp9-mPlum;NANOG^iCasp9-YFP and ACTB^TK-mPlum; NANOG^iCasp9-YFP hESCs (negative control), in addition to their respective differentiated derivatives, were treated for 24 hours with 1 nM of AP21967. E) 5×10^5 ACTB^OiCasp9-mPlum; NANOG^iCasp9-YFP hESCs, and their respective differentiated derivatives, were treated with control media, 1 nM of AP21967 or and 1 nM of AP20187 for 24 hours. Surviving cells were analyzed by alamar blue. F) 10^6 ACTB^OiCasp9-mPlum;NANOG^iCasp9-YFP hESCs engineered to express CAG-AkaLuciferase were treated with control media or 1 nM AP20187 for 24 hours, and then subcutaneously transplanted into the right and left dorsal flanks of NOD-SCID Il2rg^−/− mice (10^6 cells per flank). 4 weeks post-transplant, teratomas formed and AP21967 was intraperitoneally administered once at 10 mg/kg. […] Total flux (photons/sec) was measured for each animal and was averaged.
(In general: Resazurin is reduced to fluorescent resorufin, in cell work by metabolically active cells.)

Molecules are shown by their SMILES.

With `CC[C@H](C(=O)N1CCCC[C@H]1C(=O)O[C@H](CCc1ccc(OC)c(OC)c1)c1cccc(OCC(=O)NCC(CNC(=O)COc2cccc([C@@H](CCc3ccc(OC)c(OC)c3)OC(=O)[C@@H]3CCCCN3C(=O)[C@@H](CC)c3cc(OC)c(OC)c(OC)c3)c2)CN(C)C)c1)c1cc(OC)c(OC)c(OC)c1` [AP20], the “depletion of undifferentiated hPSCs” value in test [1] is on record as 1.75×10^6 fold. For the same compound, the “killing of undifferentiated and differentiated cells” value in test [2] was “selectively kill undifferentiated hPSCs”.
